In patent US20250328351A1, “CARBONIC ANHYDRASE INHIBITORS AND ANTIBIOTICS AGAINST MULTIDRUG RESISTANT BACTERIA” (Purdue Research Foundation, priority 2018, published 2025):
In brackets after ≈: the same amount, converted by molar mass. Read-outs that look alike come from different tables or passages of the source.

Experiments:
[1] = system: Enterococcus faecalis S613 HM-334; test: MIC, broth microdilution (CLSI); format: cell-based; details: Enterococcus faecalis, read-out: MIC
Procedure: (§1) The minimum inhibitory concentrations (MICs) of the compounds and control drugs were determined using the broth microdilution method, according to guidelines outlined by the Clinical and Laboratory Standards Institute (CLSI). Enterococci strains were grown aerobically overnight on tryptone soya agar plates at 37° C., afterwards a bacterial solution equivalent to 0.5 McFarland standard was prepared and diluted in tryptone soy broth (TSB) to achieve a bacterial concentration of about 5×10^5 CFU/mL and seeded in 96-well well plates. Compounds and control drugs were added in the first row of the 96-well plates and serially diluted along the plates. Plates were then incubated aerobically at 37° C. for 18-20 hours. MICs reported in Table 1 are the minimum concentration of the compounds/control drugs that could inhibit completely the visual growth of the bacteria.
(§2) The minimum inhibitory concentrations (MICs) of CAIs were tested against clinical isolates of vancomycin sensitive and vancomycin resistant Enterococci strains as per the guidelines provided by the Clinical and Laboratory Standards Institute (CLSI). The selected strains of Enterococci were streaked on Tryptic Soy Agar (TSA) plates and let grow for 24 hours at 37° C. Afterwards, a bacterial solution equivalent to 0.5 McFarland standard was prepared and diluted in tryptone soy broth (TSB) or brain heart infusion broth (BHIB) to achieve a bacterial concentration of about 5×10^5 CFU/mL and seeded in 96-well well plates. Compounds and control drugs were added in the first row of the 96-well plates and serially diluted along the plates. Plates were then incubated aerobically at 37° C. for 18-20 hours. MICs reported in Table 5 are the minimum concentration of the compounds/control drugs that could inhibit completely the visual growth of the bacteria.
The minimum inhibitory concentrations (MICs) of CAIs were tested against vancomycin resistant Enterococcus faecalis—S613 HM 334 strain as per the guidelines provided by the Clinical and Laboratory Standards Institute (CLSI). The selected strain was streaked on Tryptic Soy Agar (TSA) plate and let grow for 24 hours at 37° C. […] Compounds and control drugs were added in the first row of the 96-well plates and serially diluted along the plates. Plates were then incubated aerobically at 37° C. for 18-20 hours. MICs reported in table (6) are the minimum concentration of the compounds/control drugs that could inhibit completely the visual growth of the bacteria.

[2] = system: Bacteroides dorei CL02T12C06 HM-719; test: MIC against human normal gut microbiota; format: cell-based; details: Phocaeicola dorei; Table 3; BHIS broth, anaerobic, 48 hours; read-out: MIC
Procedure: (§3) Three different bacterial strains were used in this experiment; Bifidobacterium (anaerobic Gram positive bacteria), Bacteroides (anaerobic Gram negative bacteria) and Lactobacillus (microaerophilic Gram positive bacteria). Bifidobacterium and Bacteroides were first grown for 48 hours at 37° C., anaerobically using brain heart infusion supplemented (BHIS) agar (Brain heart infusion agar supplemented with hemin, vitamin K and L-cysteine). Lactobacillus was cultivated on MRS agar and incubated in presence of 5% CO2 for 48 hours at 37° C. Each bacterium was suspended in phosphate buffered saline (PBS) to produce a suspension with optical density that matches 0.5 McFarland standard and diluted in brain heart infusion supplemented broth (for Bifidobacterium and Bacteroides) or in MRS broth (for Lactobacillus) to achieve bacterial concentration of approximately 5×10^5 CFU/ml. Bacteria were then seeded in 96-well plates containing serial dilutions of the compounds and incubated as mentioned previously for 48 hours.

[3] = system: Bacteroides fragilis CL07T00C01 HM-709; test: MIC against human normal gut microbiota; format: cell-based; details: Table 3, BHIS broth, anaerobic, 48 hours, read-out: MIC
Procedure: as §3

[4] = system: Bifidobacterium breve JCP7499 HM 1120; test: MIC against human normal gut microbiota; format: cell-based; details: JCP7499HM1120, Table 3, BHIS broth, anaerobic, 48 hours, read-out: MIC
Procedure: as §3

[5] = system: vancomycin-resistant E. faecium; test: Mouse model of GI colonization by VRE; format: in vivo, C57BL/6 mice
Excerpt: Feasibility in vivo study: AZM reduces VRE load in the intestines and faeces. The promising feature, and the specific and potent antimicrobial activity of CAIs, prompted us to evaluate the in vivo efficacy of AZM in our established mouse model of GI colonization by enterococci with features that mimic the antibiotic-induced enterococcal expansion observed in humans (Mohammad, H. et al., Int J Antimicrob Agents 2018, 51, 897-904; Abdelkhalek, A, et al., PLoS One 2018, 13, e0199710). We tested AZM (two clinical doses 10 and 20 mg/kg) in female 12-week-old C57BL/6 mice (n=5 mice per group) that were sensitized with ampicillin ([…] in drinking water) for 7 days to reduce the microbiota present in the gastrointestinal tract and colonized with 10^8 CFU/mL of vancomycin-resistant E. faecium.
We thought that the rapid absorption of AZM from the gastrointestinal tract would limit their exposure time to VRE present in the gastrointestinal tract.
Mice were treated for 8 days with 10 mg/kg of drugs by oral gavage.

E. faecium NR 31909 = details: oral 20 mg/kg daily for 4 days
Excerpt: Saline was used as a negative control. Mice were euthanized on day 5 and organs (liver, spleen and kidneys) were aseptically removed and homogenized, and viable VRE were enumerated by serial dilution and plating.

VERO cells = test: In vitro cytotoxicity, MTS assay; format: cell-based, monkey; details: concentration up to 128 μg/mL; two hours incubation
Procedure: Toxicity assessment: Compounds AS005H, AS005J, AS004B, AS005K, AS005A and 005D were assayed (at concentrations of 64 and 128 μg/mL) against a fibroblast-like monkey kidney cell line (VERO cell) to determine the potential toxic effect in vitro. Briefly, cells were cultured in Minimum Essential Medium (MEM) supplemented with 10% fetal bovine serum (FBS), 1 mM sodium pyruvate, and penicillin-streptomycin at 37° C. with CO2 (5%). Control cells received DMSO alone at a concentration equal to that in drug-treated cell samples. The cells were incubated with the compounds (in triplicate) in a 96-well plate at 37° C. with CO2 (5%) for two hours. The assay reagent MTS 3-(4,5-dimethylthiazol-2-yl)-5-(3-carboxymethoxyphenyl)-2-(4-sulfophenyl)-2H-tetrazolium) (Promega, Madison, WI, USA) was subsequently added and the plate was incubated for four hours. Absorbance readings (at OD490) were taken using a kinetic microplate reader (Molecular Devices, Sunnyvale, CA, USA). The quantity of viable cells after treatment with each compound was expressed as a percentage of the viability of DMSO-treated control cells (average of triplicate wells±standard deviation). The toxicity data was analyzed via a two-way ANOVA, with post hoc Dunnet's multiple comparisons test (P<0.05), utilizing GraphPad Prism 6.0 (GraphPad Software, La Jolla, CA).
(§4) Percent viable mammalian cells (measured as average absorbance ratio (test agent relative to DMSO) for cytotoxicity analysis of compounds AS005H, AS005J, AS004B, AS005K, AS005A and 005D (tested in triplicates) at 64 and 128 μg/mL against VERO cells using the MTS 3-(4,5-dimethylthiazol-2-yl)-5-(3-carboxymethoxyphenyl)-2-(4-sulfophenyl)-2H-tetrazolium) assay. Dimethyl sulfoxide (DMSO) was used as a negative control to determine a baseline measurement for the cytotoxic impact of each compound. The absorbance values represent an average of a minimum of three samples analyzed for each compound. Error bars represent standard deviation values for the absorbance values.

Caco-2 cells = test: In vitro cytotoxicity, MTS assay; details: concentration up to 128 μg/mL; two hours incubation
Procedure: Method: Compounds AS005H, AS005J, AS004B, AS005K, AS005A and 005D were assayed (at concentrations of 64 and 128 μg/mL) against a human colorectal adenocarcinoma (Caco-2) cell to determine the potential toxic effect to mammalian cells in vitro. Briefly, cells were cultured in Dulbecco's Modified Eagle Medium (DMEM) supplemented with 20% fetal bovine serum (FBS), non-essential amino acids (1×), penicillin-streptomycin at 37° C. with CO2 (5%). Control cells received DMSO alone at a concentration equal to that in drug-treated cell samples. The cells were incubated with the compounds (in triplicate) in a 96-well plate at 37° C. with CO2 (5%) for two hours. The assay reagent MTS 3-(4,5-dimethylthiazol-2-yl)-5-(3-carboxymethoxyphenyl)-2-(4-sulfophenyl)-2H-tetrazolium) (Promega, Madison, WI, USA) was subsequently added and the plate was incubated for four hours. Absorbance readings (at OD490) were taken using a kinetic microplate reader (Molecular Devices, Sunnyvale, CA, USA). The quantity of viable cells after treatment with each compound was expressed as a percentage of the viability of DMSO-treated control cells (average of triplicate wells±standard deviation). The toxicity data was analyzed via a two-way ANOVA, with post hoc Dunnet's multiple comparisons test (P<0.05), utilizing GraphPad Prism 6.0 (GraphPad Software, La Jolla, CA).
as §4, with “of” for “of compounds”, “005D compounds” for “005D”, “triplicate)” for “triplicates)”, “Caco-2” for “VERO”, “values. A two-way ANOVA, with post hoc Dunnet's multiple comparisons test, determined statistical difference (denoted by the asterisk) (P<0.05) between the values obtained for each compound and DMSO (negative control, used as solvent for the compounds).” for “values.”

[6] = system: Enterococcus faecium E417 - HM-965; test: MIC, broth microdilution (CLSI); format: cell-based; details: Enterococcus faecium, E417HM965, Table 7; TSB; read-out: MIC
Procedure: as §1, §2

[7] = system: Enterococcus faecium Patient #2-1 - NR-31909; test: MIC, broth microdilution (CLSI); format: cell-based; details: Enterococcus faecium, Table 7; TSB; read-out: MIC
Procedure: as §1, §2

[8] = system: Enterococcus fecalis Strain SF 24397 NR31970; test: MIC, broth microdilution (CLSI); format: cell-based; details: Enterococcus, Table 7; TSB; read-out: MIC
Procedure: as §1, §2

[9] = system: Enterococcus faecium Patient #3-1 NR-31912; test: MIC, broth microdilution (CLSI); format: cell-based; details: Enterococcus faecium, Table 7; TSB; read-out: MIC
Procedure: as §1

[10] = system: Enterococcus fecalis Strain SF 28073 - NR31972; test: MIC, broth microdilution (CLSI); format: cell-based; details: Enterococcus, Table 7; TSB; read-out: MIC
Procedure: as §1

[11] = system: Enterococcus fecalis Strain SF24413 NR31971; test: MIC, broth microdilution (CLSI); format: cell-based; details: Enterococcus, Table 7; TSB; read-out: MIC
Procedure: as §1

[12] = S613HM334, Table 6, TSB in presence of 4% human serum albumin

SMILES | MIC ([1]; S613HM334, Table 1, TSB) [µg/mL] | MIC ([1]; S613HM334, Table 5, BHIB) [µg/mL] | MIC ([1]; S613HM334, Table 5, TSB) [µg/mL] | MIC [1, 12] [µg/mL] | MIC ([1]; S613HM334, Table 7, TSB) [µg/mL] | MIC [2] [µg/mL] | MIC [3] [µg/mL] | MIC [4] [µg/mL] | VRE in feces, cecal content and ileal content compared to control mice ([5]; 10 mg/kg or 20 mg/kg once a day, feces as early as 3rd day) | VRE reduction compared with linezolid ([5]; AZM 10 and 20 mg/kg, linezolid 10 mg/kg once daily for 8 days) | mice protected against a lethal dose (survival) (E. faecium NR 31909) [%] | reduction of bacterial load in internal organs compared with linezolid (E. faecium NR 31909; liver, spleen, kidneys on day 5) | toxicity to VERO cells (percent viable cells, MTS) (VERO cells) | toxicity to Caco-2 cells (percent viable cells, MTS) (Caco-2 cells) | MIC [6] [ng/mL] | MIC [7] [ng/mL] | MIC [8] [µg/mL] | MIC [9] [ng/mL] | MIC [10] [µg/mL] | MIC [11] [µg/mL]
CC(=O)Nc1nnc(S(N)(=O)=O)s1 [Acetazolamide] | 2 (≈ 9 µM) | > 128 | 2 (≈ 9 µM) | > 256 | 2 (≈ 9 µM) | > 64 | > 64 | > 64 | significant reduction | outperformed linezolid | 100 | superior to linezolid | – | – | – | – | – | – | – | –
CC(C)(C)C(=O)Nc1nnc(S(N)(=O)=O)s1 [CAI0010, N-(5-Sulfamoyl-1,3,4-thiadiazol-2-yl)pivalamide] | 0.5 (≈ 1.89 µM) | – | – | > 256 | 0.125 (≈ 0.473 µM) | > 64 | > 64 | > 64 | – | – | – | – | non-toxic | non-toxic | – | – | – | – | – | –
CC(C)C(=O)Nc1nnc(S(N)(=O)=O)s1 [CAI0011, N-(5-Sulfamoyl-1,3,4-thiadiazol-2-yl)isobutyramide] | 2 (≈ 7.99 µM) | – | – | – | 2 (≈ 7.99 µM) | > 64 | > 64 | > 64 | – | – | – | – | non-toxic | non-toxic | – | – | – | – | – | –
CCc1ccc(C(=O)Nc2nnc(S(N)(=O)=O)s2)cc1 [CAI0017, 4-Ethyl-N-(5-sulfamoyl-1,3,4-thiadiazol-2-yl)benzamide] | 1 (≈ 3.2 µM) | – | – | – | 1 (≈ 3.2 µM) | > 64 | > 64 | > 64 | – | – | – | – | non-toxic | non-toxic | – | – | – | – | – | –
NS(=O)(=O)c1nnc(NC(=O)C=CC2CCCCC2)s1 [CAI0019, 3-cyclohexyl-N-(5-sulfamoyl-1,3,4-thiadiazol-2-yl)propenamide] | – | – | – | – | 0.007 (≈ 0.0221 µM) | – | – | – | – | – | – | – | – | – | 7 (≈ 0.0221 µM) | 3 (≈ 0.00948 µM) | 0.015 (≈ 0.0474 µM) | 7 (≈ 0.0221 µM) | 0.015 (≈ 0.0474 µM) | 0.015 (≈ 0.0474 µM)
